Data as given in patent publication US20150290612A1 (priority 2012, published 2015).

Target: Acetylcholinesterase (AChE) (Electrophorus electricus, UniProt O42275)
Format: biochemical

Sequence of Acetylcholinesterase (AChE) (O42275 24-633): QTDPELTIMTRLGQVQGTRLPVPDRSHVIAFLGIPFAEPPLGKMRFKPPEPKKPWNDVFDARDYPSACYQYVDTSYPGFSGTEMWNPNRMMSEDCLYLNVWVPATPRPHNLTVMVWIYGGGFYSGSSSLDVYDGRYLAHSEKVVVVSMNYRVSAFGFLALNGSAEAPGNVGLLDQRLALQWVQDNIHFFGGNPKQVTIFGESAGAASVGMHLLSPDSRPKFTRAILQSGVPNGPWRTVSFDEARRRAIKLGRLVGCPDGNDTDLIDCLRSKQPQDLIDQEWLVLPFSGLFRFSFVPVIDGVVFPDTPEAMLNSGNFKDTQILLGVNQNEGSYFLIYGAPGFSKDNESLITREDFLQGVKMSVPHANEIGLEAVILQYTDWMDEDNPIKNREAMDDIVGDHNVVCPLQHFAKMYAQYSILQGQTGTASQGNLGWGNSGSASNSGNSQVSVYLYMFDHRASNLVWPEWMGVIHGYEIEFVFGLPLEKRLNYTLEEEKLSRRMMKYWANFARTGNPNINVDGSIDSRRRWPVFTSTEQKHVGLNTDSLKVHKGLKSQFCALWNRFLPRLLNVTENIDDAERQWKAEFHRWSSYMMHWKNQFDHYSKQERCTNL

In the case of CCNc1nc(Cl)nc(NC(C)C)n1 [atrazine], the “Interference with analysis of organophosphates” value is reported as “no interference”.

In the case of CCNc1nc(Cl)nc(NCC)n1 [simazine], the “Interference with analysis of organophosphates” value is reported as “no interference”.
